Test results from patent US20240327408A1, “COMPOUNDS CONTAINING TETRAHYDRONAPHTHYRIDINONE OR TETRAHYDROPYRIDOPYRIMIDINONE SKELETON, PREPARATION METHOD THEREFOR AND PHARMACEUTICAL USE THEREOF” (CHINA PHARMACEUTICAL UNIVERSITY, priority 2021, published 2024).

Key:
hClpP = target: T1, hClpP (Homo sapiens, UniProt Q16740); assay: activating ClpP hydrolysis of FITC-casein (fluorescence kinetic detection); format: biochemical; conditions: hClpP 1 μM, FITC-Casein 4 μM, 37° C.
T1 construct: made in house
T1 sequence (Q16740 57-277): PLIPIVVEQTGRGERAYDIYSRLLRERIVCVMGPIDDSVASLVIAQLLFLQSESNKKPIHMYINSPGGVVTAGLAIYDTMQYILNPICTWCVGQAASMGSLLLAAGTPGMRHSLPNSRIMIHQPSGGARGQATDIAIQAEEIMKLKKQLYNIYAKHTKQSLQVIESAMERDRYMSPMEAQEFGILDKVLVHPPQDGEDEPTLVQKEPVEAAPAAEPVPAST
Experimental: The specific procedures were as follows:
Test compounds were each prepared into a 100 mM stock solution in DMSO and stored. and 1 μL of stock solution of each of the compounds was taken and diluted to 10 mM by adding 9 μL of DMSO for later use.
The compounds of formula I of the present invention were each diluted at concentrations of 200 μM, 50 μM, 10 μM, 2 μM, 500 nM, 100 nM, 20 nM, and 2 nM in an assay buffer. 50 μL of each of the compounds at different concentrations was added to each well, with 2 replicate wells.
The protein was diluted to 4 μM in an assay buffer. 25 μL of protein was added to each well, and incubated at 37° C. for 30 min. The final concentration was 1 μM.
25 μL of FITC-Casein was added to each well. The final concentration was 4 μM. The mixture was immediately loaded on the machine for detection.
FITC-Casein and FITC-Casein+ClpP were used as negative controls.
The detection temperature was 37° C. The plate was shaken for 3 s. […] Kinetic parameters were set, and scanning was performed once every 1 min for 15 min.

MV4; 11 cells = assay: inhibiting the growth of MV4; 11 cells; format: cell-based; conditions: Homo sapiens

| EC50 (hClpP) [µM] | IC50 (MV4; 11 cells) [µM] | Compound |
| --- | --- | --- |
| 10 to 100 | 1 to 10 | O=c1c2c(c3cccnc3n1Cc1ccccc1)CCN(CC1CC1)C2 [Compound I-1, 6-benzyl-3-(cyclopropylmethyl)-2,3,4,6-tetrahydropyrido[3,4-c][1,8]naphthyridine-5-(1H)-one] |
| 10 to 100 | 1 to 10 | O=c1c2c(c3cccnc3n1Cc1ccccc1)CCN(CC1CCC1)C2 [Compound I-2, 6-benzyl-3-(cyclobutylmethyl)-2,3,4,6-tetrahydropyrido[3,4-c][1,8]naphthyridine-5-(1H)-one] |
| 10 to 100 | 1 to 10 | O=c1c2c(c3cccnc3n1Cc1ccccc1)CCN(CC1CCCC1)C2 [Compound I-3, 6-benzyl-3-(cyclopentylmethyl)-2,3,4,6-tetrahydropyrido[3,4-c][1,8]naphthyridine-5-(1H)-one] |
| 10 to 100 | < 1 | O=c1c2c(c3cccnc3n1Cc1ccccc1)CCN(CC1CCCCC1)C2 [Compound I-4, 6-benzyl-3-(cyclohexylmethyl)-2,3,4,6-tetrahydropyrido[3,4-c][1,8]naphthyridine-5-(1H)-one] |
| 1 to 10 | < 1 | O=c1c2c(c3cccnc3n1Cc1ccccc1)CCN(Cc1ccccc1)C2 [Compound I-5, 3,6-dibenzyl-2,3,4,6-tetrahydropyrido[3,4-c][1,8]naphthyridine-5-(1H)-one] |
| 1 to 10 | < 1 | O=c1c2c(c3cccnc3n1Cc1ccccc1)CCN(Cc1ccccc1F)C2 [Compound I-6, 6-benzyl-3-(2-fluorobenzyl)-2,3,4,6-tetrahydropyrido[3,4-c][1,8]naphthyridine-5-(1H)-one] |
| 1 to 10 | < 1 | O=c1c2c(c3cccnc3n1Cc1ccccc1)CCN(Cc1ccccc1Cl)C2 [Compound I-7, 6-benzyl-3-(2-chlorobenzyl)-2,3,4,6-tetrahydropyrido[3,4-c][1,8]naphthyridine-5-(1H)-one] |
| 1 to 10 | < 1 | O=c1c2c(c3cccnc3n1Cc1ccccc1)CCN(Cc1ccccc1Br)C2 [Compound I-8, 6-benzyl-3-(2-bromobenzyl)-2,3,4,6-tetrahydropyrido[3,4-c][1,8]naphthyridine-5-(1H)-one] |
| 1 to 10 | < 1 | Cc1ccccc1CN1CCc2c(c(=O)n(Cc3ccccc3)c3ncccc23)C1 [Compound I-9, 6-benzyl-3-(2-methylbenzyl)-2,3,4,6-tetrahydropyrido[3,4-c][1,8]naphthyridine-5-(1H)-one] |
| 1 to 10 | < 1 | CCc1ccccc1CN1CCc2c(c(=O)n(Cc3ccccc3)c3ncccc23)C1 [Compound I-10, 6-benzyl-3-(2-ethylbenzyl)-2,3,4,6-tetrahydropyrido[3,4-c][1,8]naphthyridine-5-(1H)-one] |
| 1 to 10 | < 1 | COc1ccccc1CN1CCc2c(c(=O)n(Cc3ccccc3)c3ncccc23)C1 [Compound I-11, 6-benzyl-3-(2-methoxybenzyl)-2,3,4,6-tetrahydropyrido[3,4-c][1,8]naphthyridine-5-(1H)-one] |
| < 1 | < 1 | O=c1c2c(c3cccnc3n1Cc1ccccc1)CCN(Cc1cccc(F)c1)C2 [Compound I-12, 6-benzyl-3-(3-fluorobenzyl)-2,3,4,6-tetrahydropyrido[3,4-c][1,8]naphthyridine-5-(1H)-one] |
| < 1 | < 1 | O=c1c2c(c3cccnc3n1Cc1ccccc1)CCN(Cc1cccc(Cl)c1)C2 [Compound I-13, 6-benzyl-3-(3-chlorobenzyl)-2,3,4,6-tetrahydropyrido[3,4-c][1,8]naphthyridine-5-(1H)-one] |
| < 1 | < 1 | O=c1c2c(c3cccnc3n1Cc1ccccc1)CCN(Cc1cccc(Br)c1)C2 [Compound I-14, 6-benzyl-3-(3-bromobenzyl)-2,3,4,6-tetrahydropyrido[3,4-c][1,8]naphthyridine-5-(1H)-one] |
| < 1 | < 1 | Cc1cccc(CN2CCc3c(c(=O)n(Cc4ccccc4)c4ncccc34)C2)c1 [Compound I-15, 6-benzyl-3-(3-methylbenzyl)-2,3,4,6-tetrahydropyrido[3,4-c][1,8]naphthyridine-5-(1H)-one] |
| 1 to 10 | < 1 | CCc1cccc(CN2CCc3c(c(=O)n(Cc4ccccc4)c4ncccc34)C2)c1 [Compound I-16, 6-benzyl-3-(3-ethylbenzyl)-2,3,4,6-tetrahydropyrido[3,4-c][1,8]naphthyridine-5-(1H)-one] |

| EC50 (hClpP) [µM] | IC50 (MV4; 11 cells) [µM] | Compound |
| --- | --- | --- |
| 1 to 10 | < 1 | COc1cccc(CN2CCc3c(c(=O)n(Cc4ccccc4)c4ncccc34)C2)c1 [Compound I-17, 6-benzyl-3-(3-methoxybenzyl)-2,3,4,6-tetrahydropyrido[3,4-c][1,8]naphthyridine-5-(1H)-one] |
| 1 to 10 | < 1 | O=c1c2c(c3cccnc3n1Cc1ccccc1)CCN(Cc1ccc(F)cc1)C2 [Compound I-18, 6-benzyl-3-(4-fluorobenzyl)-2,3,4,6-tetrahydropyrido[3,4-c][1,8]naphthyridine-5-(1H)-one] |
| 1 to 10 | < 1 | O=c1c2c(c3cccnc3n1Cc1ccccc1)CCN(Cc1ccc(Cl)cc1)C2 [Compound I-19, 6-benzyl-3-(4-chlorobenzyl)-2,3,4,6-tetrahydropyrido[3,4-c][1,8]naphthyridine-5-(1H)-one] |
| 1 to 10 | < 1 | O=c1c2c(c3cccnc3n1Cc1ccccc1)CCN(Cc1ccc(Br)cc1)C2 [Compound I-20, 6-benzyl-3-(4-bromobenzyl)-2,3,4,6-tetrahydropyrido[3,4-c][1,8]naphthyridine-5-(1H)-one] |
| 1 to 10 | < 1 | Cc1ccc(CN2CCc3c(c(=O)n(Cc4ccccc4)c4ncccc34)C2)cc1 [Compound I-21, 6-benzyl-3-(4-methylbenzyl)-2,3,4,6-tetrahydropyrido[3,4-c][1,8]naphthyridine-5-(1H)-one] |
| 1 to 10 | < 1 | CCc1ccc(CN2CCc3c(c(=O)n(Cc4ccccc4)c4ncccc34)C2)cc1 [Compound I-22, 6-benzyl-3-(4-ethylbenzyl)-2,3,4,6-tetrahydropyrido[3,4-c][1,8]naphthyridine-5-(1H)-one] |
| 1 to 10 | < 1 | COc1ccc(CN2CCc3c(c(=O)n(Cc4ccccc4)c4ncccc34)C2)cc1 [Compound I-23, 6-benzyl-3-(4-methoxybenzyl)-2,3,4,6-tetrahydropyrido[3,4-c][1,8]naphthyridine-5-(1H)-one] |
| 10 to 100 | 1 to 10 | Cn1ccc(CN2CCc3c(c(=O)n(Cc4ccccc4)c4ncccc34)C2)n1 [Compound I-24, 6-benzyl-3-((1-methyl-1H-pyrazol-3-yl)methyl)-2,3,4,6-tetrahydropyrido[3,4-c][1,8]naphthyridine-5-(1H)-one] |
| 10 to 100 | 1 to 10 | Cn1nccc1CN1CCc2c(c(=O)n(Cc3ccccc3)c3ncccc23)C1 [Compound I-25, 6-benzyl-3-((1-methyl-1H-pyrazol-5-yl)methyl)-2,3,4,6-tetrahydropyrido[3,4-c][1,8]naphthyridine-5-(1H)-one] |
| 10 to 100 | 1 to 10 | Cc1cc(CN2CCc3c(c(=O)n(Cc4ccccc4)c4ncccc34)C2)n(C)n1 [Compound I-26, 6-benzyl-3-((1,3-dimethyl-1H-pyrazol-5-yl)methyl)-2,3,4,6-tetrahydropyrido[3,4-c][1,8]naphthyridine-5-(1H)-one] |
| 10 to 100 | 1 to 10 | O=c1c2c(c3cccnc3n1Cc1ccccc1)CCN(Cc1ccccn1)C2 [Compound I-27, 6-benzyl-3-(pyridin-2-ylmethyl)-2,3,4,6-tetrahydropyrido[3,4-c][1,8]naphthyridine-5-(1H)-one] |
| 10 to 100 | 1 to 10 | O=c1c2c(c3cccnc3n1Cc1ccccc1)CCN(Cc1cccnc1)C2 [Compound I-28, 6-benzyl-3-(pyridin-3-ylmethyl)-2,3,4,6-tetrahydropyrido[3,4-c][1,8]naphthyridine-5-(1H)-one] |
| 10 to 100 | 1 to 10 | O=c1c2c(c3cccnc3n1Cc1ccccc1)CCN(Cc1ccncc1)C2 [Compound I-29, 6-benzyl-3-(pyridin-4-ylmethyl)-2,3,4,6-tetrahydropyrido[3,4-c][1,8]naphthyridine-5-(1H)-one] |
| 10 to 100 | 1 to 10 | O=c1c2c(c3cccnc3n1Cc1ccccc1)CCN(Cc1cc(Cl)ccn1)C2 [Compound I-30, 6-benzyl-3-((4-chloropyridin-2-yl)methyl)-2,3,4,6-tetrahydropyrido[3,4-c][1,8]naphthyridine-5-(1H)-one] |
| 10 to 100 | 1 to 10 | Cn1ccnc1CN1CCc2c(c(=O)n(Cc3ccccc3)c3ncccc23)C1 [Compound I-31, 6-benzyl-3-((1-methyl-1H-imidazol-2-yl)methyl)-2,3,4,6-tetrahydropyrido[3,4-c][1,8]naphthyridine-5-(1H)-one] |
| 10 to 100 | 1 to 10 | Cn1cnc(CN2CCc3c(c(=O)n(Cc4ccccc4)c4ncccc34)C2)c1 [Compound I-32, 6-benzyl-3-((1-methyl-1H-imidazol-4-yl)methyl)-2,3,4,6-tetrahydropyrido[3,4-c][1,8]naphthyridine-5-(1H)-one] |

| Compound | EC50 (hClpP) [µM] | IC50 (MV4; 11 cells) [µM] |
| --- | --- | --- |
| O=c1c2c(n3ccnc3n1Cc1ccc(C(F)(F)F)cc1)CCN(Cc1cccc(Cl)c1)C2 [Compound I-129, 7-(3-chlorobenzyl)-4-(4-trifluoromethylbenzyl)-6,7,8,9-tetrahydroimidazo[1,2-a]pyrido[3,4-e]pyrimidine-5(4H)-one] |  | < 1 |
